Assay results: US20250019350A1, “SYNTHESIS OF THE PROSTATE SPECIFIC MEMBRANE ANTIGEN (PSMA) RADIOLABELED INHIBITOR [18F]DCFPYL” (Progenics Pharmaceuticals, Inc, priority 2023, published 2025)

Experiment: Radiolysis / stability of [18F]DCFPyL over time by HPLC with radiodetection (RCP, free 18F, radioactive impurities)
Type: physicochemical
Conditions: for RT 4.8 radioactive impurity: MPA = 0.25% of main peak; for RCP: T = 10 hour; for 18F-DCFPyL / Free 18F: forced radiolysis in ethanol, 364.5 mCi/mL; for RT 5.0 min / RT 5.9 min / RT 12.0 min / RT 12.2 min: radioactive impurity
Description: Those of ordinary skill in the art will be aware of techniques and systems for determining the radiochemical purity of a composition. In some cases, the radiochemical purity is determined using an HPLC associated with a radio-detector. Generally, the radiochemical purity is determined under ambient conditions (e.g., ambient temperature, ambient humidity, ambient light, etc.), such as in samples stored under such conditions.
Stability was assessed using reverse phase HPLC on a C18 column with a phosphate buffer/acetonitrile gradient mobile phase, and the elution profile was monitored using both UV and radiochemical detectors. Samples were analyzed either by direct injection onto the HPLC, dilution and injection or including the addition of tetraethylammonium fluoride (TEAF) into the sample before injection.
Known amounts of free ^18F either alone or spiked with TEAF were injected onto the analytic column and the eluent from the column collected over the course of a chromatogram and assaying the radioactivity using a Capintec. […] Adding TEAF into the analytic samples was incorporated into subsequent studies examining potential radiolysis of [^18F]DCFPyL to overcome some of the limitations of free ^18F quantification.
Analytical HPLC method was used. The method employs UV detection at 264 nm for chemical impurities, and an Eckert & Ziegler model B-FC-1000 gamma detector for radiochemical assays.

[1] = T = 6 hr, 5 mg/mL ascorbic acid pH 5.8, 20% ethanol, 99.0 mCi/mL at EOS
[2] = T = 6 hr, 50 mg/mL ascorbic acid pH 5.8, 20% ethanol, 139.7 mCi/mL at EOS
[3] = T = 6 hr, 100% ethanol, 325 mCi/mL at EOS
[4] = T = 7 hr, 100% ethanol, 325 mCi/mL at EOS
[5] = T = 8 hr, 100% ethanol, 325 mCi/mL at EOS
[6] = T = 9 hr, 100% ethanol, 325 mCi/mL at EOS
[7] = T = 10 hr, +TEAF added to sample before HPLC, 100% ethanol, 325 mCi/mL at EOS
[8] = T = 10 hr, 1 mg/mL ascorbic acid pH 5.8, 20% ethanol, 107.0 mCi/mL at EOS
[9] = T = 10 hr, 5 mg/mL ascorbic acid pH 5.8, 20% ethanol, 99.0 mCi/mL at EOS
[10] = T = 10 hr, 50 mg/mL ascorbic acid pH 5.8, 20% ethanol, 139.7 mCi/mL at EOS
[11] = T = 10 h, TEAF added (44 mg/mL) to sharpen the 18F peak
[12] = 147 mCi/mL in 0.9% Sodium Chloride, USP, T = 0 h
[13] = 147 mCi/mL in 0.9% Sodium Chloride, USP, T = 0.5 h
[14] = 147 mCi/mL in 0.9% Sodium Chloride, USP, T = 1.0 h
[15] = 147 mCi/mL in 0.9% Sodium Chloride, USP, T = 1.5 h
[16] = 147 mCi/mL in 0.9% Sodium Chloride, USP, T = 2.0 h
[17] = 147 mCi/mL in 0.9% Sodium Chloride, USP, T = 2.5 h
[18] = 147 mCi/mL in 0.9% Sodium Chloride, USP, T = 3.0 h
[19] = 147 mCi/mL in 0.9% Sodium Chloride, USP, T = 3.5 h
[20] = 147 mCi/mL in 0.9% Sodium Chloride, USP, T = 4.0 h
[21] = 256 mCi/mL in ethanol, T = 1.0 h
[22] = 256 mCi/mL in ethanol, T = 1.5 h
[23] = 256 mCi/mL in ethanol, T = 2.0 h
[24] = 256 mCi/mL in ethanol, T = 2.5 h
[25] = 256 mCi/mL in ethanol, T = 3.0 h
[26] = 256 mCi/mL in ethanol, T = 3.5 h
[27] = 256 mCi/mL in ethanol, T = 4.0 h

SMILES: O=C(O)CC[C@H](NC(=O)N[C@@H](CCCCNC(=O)c1ccc([18F])nc1)C(=O)O)C(=O)O [Lot 18F-DCFPyL, 2-(3-{1-carboxy-5-[(6-[18F]fluoro-pyridine-3-carbonyl)-amino]-pentyl}ureido)-pentanedioic acid]
- Free F-18 (T = 6 hr, 1 mg/mL ascorbic acid pH 5.8, 20% ethanol, 107.0 mCi/mL at EOS): 1.57%
- Free F-18 (T = 6 hr, 1 mg/mL sodium ascorbate, 20% ethanol, 111.5 mCi/mL at EOS): 2.81%
- 18F-DCFPyL (% RCP) [1]: 99.09%
- Free F-18 [1]: 0.91%
- Free F-18 (T = 6 hr, 5 mg/mL sodium ascorbate, 20% ethanol, 114.6 mCi/mL at EOS): 1.45%
- 18F-DCFPyL (% RCP) [2]: 99.64%
- Free F-18 [2]: 0.36%
- RT 4.8 radioactive impurity [2]: <MPA
- 18F-DCFPyL (RCP) [3]: 96.73%
- Free F-18 [3]: 4.27%
- 18F-DCFPyL (RCP) [4]: 96.42%
- Free F-18 [4]: 4.58%
- 18F-DCFPyL (RCP) [5]: 95.76%
- Free F-18 [5]: 4.24%
- 18F-DCFPyL (RCP) [6]: 95.31%
- Free F-18 [6]: 4.69%
- RCP (120 mCi/mL, ascorbic acid 5.6 mg/mL pH 6.0): 96.9%
- RCP (127 mCi/mL, ascorbic acid 2.8 mg/mL pH 6.0): 96.1%
- RCP (166 mCi/mL, ascorbic acid 5.6 mg/mL pH 6.0): 95.5%
- 18F-DCFPyL (RCP) [7]: 92.7%
- Free F-18 [7]: 7.35%
- Free F-18 (T = 10 hr, +TEAF added to sample before HPLC, 100% ethanol, 325 mCi/mL at EOS, listed as 18F DCFPyL): 7.4%
- Free F-18 (T = 10 hr, no TEAF, 100% ethanol, 325 mCi/mL at EOS): 4.55%
- Free F-18 (T = 10 hr, no TEAF, 100% ethanol, 325 mCi/mL at EOS, listed as 18F DCFPyL): 4.6%
- Free F-18 (T = 10 hr, 0.5 mg/mL ascorbic acid pH 5.8, 20% ethanol, 105.8 mCi/mL at EOS): 1.42%
- 18F-DCFPyL (% RCP) [8]: 98.36%
- Free F-18 [8]: 1.64%
- Free F-18 (T = 10 hr, 1 mg/mL sodium ascorbate, 20% ethanol, 111.5 mCi/mL at EOS): 2.74%
- 18F-DCFPyL (% RCP) [9]: 99.05%
- Free F-18 [9]: 0.95%
- Free F-18 (T = 10 hr, 5 mg/mL sodium ascorbate, 20% ethanol, 114.6 mCi/mL at EOS): 1.51%
- 18F-DCFPyL (% RCP) [10]: 99.34%
- Free F-18 [10]: 0.30%
- RT 4.8 radioactive impurity [10]: 0.36%
- 18F-DCFPyL (RCP) (T = 10 hr, 100% ethanol, 325 mCi/mL at EOS): 95.45%
- 18F-DCFPyL (RCP) (T = 10 hr, 100% ethanol, 325 mCi/mL at EOS, listed as 18F DCFPyL): 95.5%
- 18F-DCFPyL (T = 0 h): 98.37 area %
- Free 18F (T = 0 h): 1.63 area %
- 18F-DCFPyL (T = 1 h): 96.66 area %
- Free 18F (T = 1 h): 3.34 area %
- 18F-DCFPyL (T = 2 h): 96.38 area %
- Free 18F (T = 2 h): 3.62 area %
- 18F-DCFPyL (T = 3 h): 95.71 area %
- Free 18F (T = 3 h): 4.29 area %
- 18F-DCFPyL (T = 4 h): 95.60 area %
- Free 18F (T = 4 h): 4.40 area %
- 18F-DCFPyL (T = 5 h): 95.58 area %
- Free 18F (T = 5 h): 4.42 area %
- 18F-DCFPyL (T = 6 h): 95.73 area %
- Free 18F (T = 6 h): 4.27 area %
- 18F-DCFPyL (T = 7 h): 95.42 area %
- Free 18F (T = 7 h): 4.58 area %
- 18F-DCFPyL (T = 8 h): 95.76 area %
- Free 18F (T = 8 h): 4.24 area %
- 18F-DCFPyL (T = 9 h): 95.31 area %
- Free 18F (T = 9 h): 4.69 area %
- 18F-DCFPyL (T = 10 h): 95.45 area %
- Free 18F (T = 10 h): 4.55 area %
- 18F-DCFPyL [11]: 92.65 area %
- Free 18F [11]: 7.35 area %
- two impurities eluting before the 18F-DCFPyL peak, upper end of range (<LLQ to ...) (over 4 hours, 110 mCi/mL lot, 50 mg/mL pH 5.8 ascorbic acid, 24% (w/w) ethanol): ≤ 0.37%
- impurity eluting before the 18F-DCFPyL peak, upper end of range (<LLQ to ...) (over 4 hours, 256 mCi/mL lot, 100 mg/mL pH 2.0 ascorbic acid in collection vial): ≤ 0.35%
- RT 5.0 min (110 mCi/mL in 50 mg/mL pH 5.8 ascorbic acid, T = 0 h): 0.27 area %
- RT 5.0 min (110 mCi/mL in 50 mg/mL pH 5.8 ascorbic acid, T = 0.5 h): 0.28 area %
- RT 5.0 min (110 mCi/mL in 50 mg/mL pH 5.8 ascorbic acid, T = 1.0 h): 0.26 area %
- RT 5.0 min (110 mCi/mL in 50 mg/mL pH 5.8 ascorbic acid, T = 1.5 h): 0.34 area %
- RT 5.0 min (110 mCi/mL in 50 mg/mL pH 5.8 ascorbic acid, T = 2.0 h): 0.24 area %
- RT 5.0 min (110 mCi/mL in 50 mg/mL pH 5.8 ascorbic acid, T = 2.5 h): 0.34 area %
- RT 5.0 min (110 mCi/mL in 50 mg/mL pH 5.8 ascorbic acid, T = 3.0 h): 0.35 area %
- RT 5.0 min (110 mCi/mL in 50 mg/mL pH 5.8 ascorbic acid, T = 3.5 h): 0.31 area %
- RT 5.0 min (110 mCi/mL in 50 mg/mL pH 5.8 ascorbic acid, T = 4.0 h): 0.31 area %
- RT 5.0 min [12]: 0.50 area %
- RT 5.9 min [12]: 0.64 area %
- RT 5.0 min [13]: 0.65 area %
- RT 5.9 min [13]: 0.97 area %
- RT 5.0 min [14]: 0.48 area %
- RT 5.9 min [14]: 1.11 area %
- RT 5.0 min [15]: 0.61 area %
- RT 5.9 min [15]: 1.03 area %
- RT 5.0 min [16]: 0.77 area %
- RT 5.9 min [16]: 1.05 area %
- RT 5.0 min [17]: 0.62 area %
- RT 5.9 min [17]: 0.93 area %
- RT 5.0 min [18]: 0.70 area %
- RT 5.9 min [18]: 0.87 area %
- RT 5.0 min [19]: 0.59 area %
- RT 5.9 min [19]: 0.95 area %
- RT 5.0 min [20]: 0.71 area %
- RT 5.9 min [20]: 0.96 area %
- RT 5.0 min [21]: 0.35 area %
- RT 12.0 min [21]: 0.35 area %
- RT 12.2 min [21]: 0.31 area %
- RT 5.0 min [22]: 0.28 area %
- RT 12.0 min [22]: 0.46 area %
- RT 12.2 min [22]: 0.37 area %
- RT 5.0 min [23]: 0.50 area %
- RT 12.0 min [23]: 0.52 area %
- RT 12.2 min [23]: 0.47 area %
- RT 12.0 min [24]: 0.52 area %
- RT 12.2 min [24]: 0.46 area %
- RT 12.0 min [25]: 0.69 area %
- RT 12.2 min [25]: 0.57 area %
- RT 12.0 min [26]: 0.87 area %
- RT 12.2 min [26]: 0.75 area %
- RT 12.0 min [27]: 0.96 area %
- RT 12.2 min [27]: 0.69 area %
